Test results published in article PMC11112094, “MzmL, a novel marine derived N-acyl homoserine lactonase from Mesoflavibacter zeaxanthinifaciens that attenuates Pectobacterium carotovorum subsp. carotovorum virulence” (Frontiers in Microbiology, 2024).

Tested on: T1, MzmL
T1 construct: full-length ORF (304 residues, predicted 16-residue signal peptide MKKLIILLITLSLFVA included in the clone), N-terminal His6 tag kept (pET-28a), E. coli BL21(DE3), Ni-NTA, ~35 kDa
Assay: pH-indicator (bromothymol blue) assay of lactone hydrolysis, OD630, Michaelis-Menten fit
Type: biochemical, Mesoflavibacter zeaxanthinifaciens
Settings: 2.5 mM MOPS pH 7.1; 25°C in methods, 28°C in table footnote; 5 nM enzyme; read-out: Km (mM)/Mean ± SD
Source text: pH-indicator (bromothymol blue) assay of lactone hydrolysis, OD630, Michaelis-Menten fit on MzmL

| Km [mM] | SMILES |
| --- | --- |
| 0.46 ± 0.21 | CCCCCC(=O)CC(=O)N[C@H]1CCOC1=O [3-oxo-C8-HSL] |
| 0.12 ± 0.03 | CCCCCCCC(=O)CC(=O)N[C@H]1CCOC1=O [3-oxo-C10-HSL] |
| 0.08 ± 0.06 | CCCC(=O)CC(=O)N[C@H]1CCOC1=O [3-oxo-C6-HSL] |

Continued, compound first:

| SMILES | Km [mM] |
| --- | --- |
| CCCCCC(=O)N[C@H]1CCOC1=O [C6-HSL] | 0.39 ± 0.11 |
| CCCCCCCCCC(=O)N[C@H]1CCOC1=O [C10-HSL] | 0.04 ± 0.01 |
